# Measurements reported in US20230129438A1, “IMMUNOMODULATING IMINE-OXAZOLINE AZALIDES” (Zoetis Services LLC, priority 2020, published 2023).
# “Also recorded” adds a separate entry of the source. Like-named read-outs stand apart in the source and are kept apart here.
# Key:
# SLAMF9 = SLAMF9 (Bos taurus, UniProt E1BNF9); assay: Surface plasmon resonance (SPR) drug/target binding, SLAMF9; design: species or system bovine; details: read-out: Interaction KD
# Protocol: (§1) To further characterize the direct activity of the compounds of the invention, experiments to identify the drug's direct binding host partners(s) were performed with the aim of identifying the potential biological targets. Bovine primary cells (peripheral blood mononuclear cells [PBMCs] and polymorphonuclear cells [PMN/neutrophils]) and tissue (trachea, lung) protein homogenates were mixed with M9 and the macrolide, gamithromicin as a comparator. Tissue interactions were allowed to form using a heterogeneous assembly method (nematic protein organization technique, NPOT; Inoviem Scientific); and traditional western blots to identify native-structure proteins bound to the compound. Mass spectrometry analysis identified eight proteins involved in the interaction with M9 as compared to gamithromycin. The antibacterial macrolide gamithromycin was used as a comparator to differentiate specific binding to M9. These proteins were considered to be either direct binding partners of the drug or closely involved in the drug:target interaction (Table 6).
# (§2) In order to add further clarity to binding partner identification, surface plasma resonance (SPR) technology was used. […]
# (§3) KD is the equilibrium dissociation constant that was used to present the drug/target affinity. The identified targets associated with drug were measured by surface plasmon resonance (SPR) to define the KD.
# P. multocida 46572 = assay: In vivo mouse lung infection challenge model (murine efficacy model); details: P. multocida infection in mice
# TLR4 = target: T1, TLR4 (Bos taurus, UniProt Q9GL65); assay: Drug binding partner identification (NPOT/SPR), TLR4; design: species or system bovine; details: tissue PBMCs, Trachea
# T1 sequence (Q9GL65 24-841): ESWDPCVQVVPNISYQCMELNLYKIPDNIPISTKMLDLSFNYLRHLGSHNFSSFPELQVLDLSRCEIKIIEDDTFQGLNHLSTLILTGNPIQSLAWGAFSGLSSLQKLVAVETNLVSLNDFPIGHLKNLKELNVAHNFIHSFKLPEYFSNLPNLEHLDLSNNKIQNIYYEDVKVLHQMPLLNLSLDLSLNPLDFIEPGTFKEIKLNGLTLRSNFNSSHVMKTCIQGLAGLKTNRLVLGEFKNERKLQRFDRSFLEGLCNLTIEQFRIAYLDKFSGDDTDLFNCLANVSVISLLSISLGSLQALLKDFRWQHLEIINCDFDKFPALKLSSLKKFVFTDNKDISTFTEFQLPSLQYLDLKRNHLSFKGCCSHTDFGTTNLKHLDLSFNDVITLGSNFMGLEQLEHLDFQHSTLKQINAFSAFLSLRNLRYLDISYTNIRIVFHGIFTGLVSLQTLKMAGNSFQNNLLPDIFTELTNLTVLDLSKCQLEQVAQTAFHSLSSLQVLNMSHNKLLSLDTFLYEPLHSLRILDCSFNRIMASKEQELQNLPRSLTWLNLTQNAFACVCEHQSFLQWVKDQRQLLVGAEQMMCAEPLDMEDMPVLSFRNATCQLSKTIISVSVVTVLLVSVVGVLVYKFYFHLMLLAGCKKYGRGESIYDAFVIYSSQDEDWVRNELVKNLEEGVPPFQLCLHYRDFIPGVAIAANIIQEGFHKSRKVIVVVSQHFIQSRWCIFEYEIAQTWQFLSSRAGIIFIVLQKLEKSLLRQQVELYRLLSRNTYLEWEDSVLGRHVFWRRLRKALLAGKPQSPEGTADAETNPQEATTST
# Protocol: as §1, §2, §3
# [1] = Separate study of M9 versus saline control (lung lesions, mortality); assay type: in vivo; details: 10 mg/kg
# [2] = test system: bovine respiratory disease (BRD); assay: Natural bovine respiratory disease study; assay type: in vivo, beef calves
# Protocol: The primary clinical endpoint for efficacy was treatment failure/success over a 14-day observation period. Clinically normal beef calves (150-200 kg) at moderate risk for BRD were dosed on arrival to the feedlot. Animals (N=114/group) received saline (T01), 5 mg/kg M9 (T02) or 10 mg/kg M9 (T03); or Zactran (T04). […] Bacterial isolates were collected at necropsy and MICs were evaluated (Table 4).
# [3] = test system: M. haemolytica (strain: OSU-012103-BHI); assay: Bovine M. haemolytica intratracheal lung challenge model; assay type: in vivo
# LCN2 = target: T2, LCN2 (Bos taurus, UniProt A0AAA9TIZ6); assay: Surface plasmon resonance (SPR) drug/target binding, LCN2; design: species or system bovine; details: read-out: Interaction KD
# T2 sequence (A0AAA9TIZ6 24-200): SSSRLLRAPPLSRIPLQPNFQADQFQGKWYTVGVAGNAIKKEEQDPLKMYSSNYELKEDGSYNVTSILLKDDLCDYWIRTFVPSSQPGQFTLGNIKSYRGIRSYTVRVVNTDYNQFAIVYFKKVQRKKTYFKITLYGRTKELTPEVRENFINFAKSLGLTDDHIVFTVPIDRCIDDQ
# Protocol: as §1, §2, §3
# IL-1β = assay: Bovine whole blood assay, IL-1β; assay type: cell-based; details: drug concentration giving overstimulation of IL-1β over LPS (cellular toxicity signal)
# Protocol: (protected from light) for 30 minutes.
# [4] = Separate PK study, plasma concentration; details: following a 10 mg/kg dose
# LPO = LPO (Bos taurus, UniProt P80025); assay: Drug binding partner identification (NPOT/SPR), LPO; design: species or system bovine; details: tissue Trachea, PBMCs, PMNs
# Protocol: as §1, §2, §3
# NLRX1 = NLRX1 (Bos taurus, UniProt A7MB19); assay: Drug binding partner identification (NPOT/SPR), NLRX1; design: species or system bovine; details: tissue PBMCs
# Sequence of NLRX1 (A7MB19 1-973): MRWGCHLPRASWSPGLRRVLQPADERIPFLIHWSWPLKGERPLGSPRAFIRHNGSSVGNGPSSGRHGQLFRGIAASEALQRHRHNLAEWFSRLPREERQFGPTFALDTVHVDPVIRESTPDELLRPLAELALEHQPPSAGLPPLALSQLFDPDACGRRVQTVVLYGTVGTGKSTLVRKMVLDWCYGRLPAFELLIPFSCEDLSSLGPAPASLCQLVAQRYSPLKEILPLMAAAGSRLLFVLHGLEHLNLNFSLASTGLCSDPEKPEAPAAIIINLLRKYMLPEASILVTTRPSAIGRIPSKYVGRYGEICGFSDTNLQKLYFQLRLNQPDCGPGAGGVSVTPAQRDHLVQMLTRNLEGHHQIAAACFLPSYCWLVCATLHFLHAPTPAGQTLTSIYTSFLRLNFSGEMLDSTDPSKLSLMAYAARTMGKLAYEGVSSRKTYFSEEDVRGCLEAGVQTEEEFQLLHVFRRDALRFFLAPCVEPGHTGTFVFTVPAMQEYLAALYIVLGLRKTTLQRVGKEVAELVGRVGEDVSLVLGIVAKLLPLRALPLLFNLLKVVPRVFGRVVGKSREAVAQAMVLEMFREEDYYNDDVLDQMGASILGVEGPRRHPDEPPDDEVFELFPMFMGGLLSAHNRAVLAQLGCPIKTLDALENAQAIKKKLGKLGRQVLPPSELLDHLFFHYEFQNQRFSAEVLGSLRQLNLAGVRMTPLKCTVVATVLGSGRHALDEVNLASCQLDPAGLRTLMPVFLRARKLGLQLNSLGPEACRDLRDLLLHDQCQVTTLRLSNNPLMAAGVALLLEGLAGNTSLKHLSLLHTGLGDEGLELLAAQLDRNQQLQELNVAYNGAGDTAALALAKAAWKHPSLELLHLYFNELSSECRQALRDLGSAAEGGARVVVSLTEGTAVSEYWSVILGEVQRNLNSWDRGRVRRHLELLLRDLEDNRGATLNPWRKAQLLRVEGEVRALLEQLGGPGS
# Protocol: as §1, §2, §3
# P. multocida = assay: Murine P. multocida intranasal challenge study with lung tissue RNA sequence analysis; assay type: in vivo, mouse; details: 32 mg/kg subcutaneous 18 hours after challenge (T03); placebo 0%
# Protocol: In one murine P. multocida intranasal challenge study, mice were administered tulathromycin (16 mg/kg; T02), M9 (32 mg/kg; T03), or ceftiofur (9 mg/kg; T04) by subcutaneous injection 18 hours after bacterial challenge (5×10^3 CFU/mouse) for lung tissue RNA sequence analysis. Survival at Day 7 was about 80%, 50%, and 90% for T02, T03, and T04, respectively, compared to placebo at 0%. Differential gene expression from total lung tissue RNA sequence analysis indicated at least 226 unique genes were up or down regulated (with significance) for T03. Output from ingenuity pathway analysis of these unique genes predicted major upstream regulators of the involved pathways. Data was analyzed based on the number of genes being modulated in the same direction that were associated with a given upstream regulator. An activation z-score of 2 or greater is considered significant and the direction change is indicated by + (activated) or − (inhibited). The top 5 pathways included: IL-9 signaling, glucocorticoid receptor signaling, prolactin signaling, JAK STAT signaling, and IL-17 signaling. The top 6 upstream regulators (activation z-score) included: lipopolysaccharide (−6.725), TNF (−4.669), IFNγ (−5.759), IL-1β (−5.947), STAT1 (−2.787), and poly rI:rC-RNA (−5.289). Even though this study was run in the murine model, the top upstream regulators identified as being modulated by M9 include an almost ubiquitous overlap with the pathways identified in the natural disease study as being key mediators in BRD, and therefore is modulating highly relevant pathways in BRD pathobiology.
# Sequence of SLAMF9 (E1BNF9 1-289): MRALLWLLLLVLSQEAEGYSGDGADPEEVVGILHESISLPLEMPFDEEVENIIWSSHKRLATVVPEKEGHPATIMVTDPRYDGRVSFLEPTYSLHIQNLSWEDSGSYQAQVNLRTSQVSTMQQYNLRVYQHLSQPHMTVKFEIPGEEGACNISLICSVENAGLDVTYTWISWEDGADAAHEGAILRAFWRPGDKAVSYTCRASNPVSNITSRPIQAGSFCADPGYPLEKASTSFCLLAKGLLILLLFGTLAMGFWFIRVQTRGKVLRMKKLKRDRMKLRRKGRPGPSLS
smiles,measurement,setting,value
"CCCNC[C@]1(O)[C@H](C)O[C@@H](O[C@H]2[C@H](C)[C@@H](O[C@@H]3O[C@H](C)C[C@H](NC)[C@H]3O)[C@](C)(O)C[C@@H](C)CN[C@H](C)[C@@H](O)[C@](C)(O)[C@@H](CC)OC(=O)[C@@H]2C)C[C@@]1(C)OC [Example M9, (2R,3S,4R,5R,8R,10R,11R,12S,13S,14R)-2-ethyl-3,4,10-trihydroxy-13-(((2R,4R,5S,6S)-5-hydroxy-4-methoxy-4,6-dimethyl-5-((propylamino)methyl)-tetrahydro-2H-pyran-2-yl)oxy)-11-(((2S,3R,4S,6R)-3-hydroxy-6-methyl-4-(methylamino)tetrahydro-2H-pyran-2-yl)oxy)-3,5,8,10,12,14-hexamethyl-1-oxa-6-azacyclopentadecan-15-one]",Kd,"SLAMF9; pH 5.5, SPR",6.33 mM
same,Kd,"SLAMF9; pH 6.5, SPR",2.15 mM
same,"clinical efficacy, in words",P. multocida 46572,clinically efficacious
same,Interaction,TLR4,Indirect
same,lung lesions,"[1]; saline control 31%, p=0.023",20%
same,Mortality,"[1]; saline control 38.9%, p=0.025",13%
same,Percent failure (treatment failure),"[2]; 10 mg/kg (T03), dosed on arrival, 14-day observation, saline 43%",8.8%
same,"efficacy versus untreated control groups, in words",[2]; reduction of lung lesions and treatment failure,statistical superiority
same,Mortality,"[3]; T02: 10 mg/kg subcutaneous Day −1, M. haemolytica challenge Day 0, saline 4/6",1/6
same,"IL-6 levels, in words","[3]; bovine M. haemolytica challenge, blood biomarker",significantly reduced
same,"CD163 expression, in words","[3]; cattle, monocytes/macrophages in whole blood, flow cytometry",suppressed; also recorded: mitigates the pathologic increase
same,Kd,"LCN2; pH 5.5, SPR",0.435 mM
same,Kd,"LCN2; pH 6.5, SPR",4.21 mM
same,IL-Iβ OS of LPS,IL-1β,> 500 µM
same,maximum plasma concentration,[4],5 µg/mL
same,Interaction,LPO,Indirect
same,Interaction,NLRX1,Indirect
same,Survival at Day 7,P. multocida,~50%
